Patent publication US20180228711A1, “3-(4-HYDROXYPHENYL) PROPANOIC ACID AMIDE FOR USE IN TISSUE REPAIR AND/OR SKIN BRIGHTENING” (NMETICS IVS, priority 2015, published 2018)

Assays:
Assay type in all cases: cell-based
B10F16 mouse melanocytes = assay: skin de-pigmentation assay (cell pellet colour intensity)
Procedure: The assay was standardized using B10F16 mouse melanocytes with cell numbers at a density ranging from 5×10^4 to 1×10^5 cells per ml. […] The following day the cells were pre-treated with 80 μM of PA and 10 μM+control for 2 h, 24 h, 72 h and 96 h.
Cells were then collected, counted for cell number and equal numbers were pelleted. The cell pellet was visually observed for colour intensity and quantified. The same cell pellet was then used for protein extraction and immunoblot analysis.
Test solution preparation: Stock solutions of the test compound are prepared by dissolving in DMSO. The stock solutions were filter sterilized, stored in fridge at 4° C., and were used for experiments by dilution it in the cell culture medium as required.
Mouse melanocytes (B10F16 cell line) were maintained in Dulbecco's modified Eagle's medium (DMEM; Invitrogen) supplemented with 10% foetal bovine serum (v/v; Invitrogen), 2 mM glutamine, and 1% non-essential amino-acids.
Cells were sub-cultured at 37° C., 5% CO2 and 95% humidity, were fed approximately 16 h prior to each assay and cell number was determined in duplicates using a Coulter Z2 counter (Beckman Coulter). Mouse melanocytes were sub-cultured when they reached confluence at a split ratio 1:4.

human fibroblast cells [1] = assay: uni-directional scratch assay (cell migration); conditions: fibroblasts pre-treated with PA 80 μM for three days; after 24 hrs
Procedure: Fibroblasts were pre-treated with PA (80 μM) for three days before performing the scratch assay.
(§1) Delicate cell monolayers at confluency are mechanically disrupted leaving an area devoid of cells. This procedure is accomplished by a “scrape” made on the cells and later advancement of the adjacent cells into the open area by cell mechanical migration, which is monitored by microscopy. Depending on the cell type, the covering process can take from many hours to less than a day, which is entirely dependent on the type of cells and extent of the scrape. The rate or the extent of migration of the cells (often termed as repopulation rate) can be calculated by a series of photomicrographs.
• Plate fibroblasts at a density 1×10^4 in 35 mm tissue culture plates and incubate for three days using novel test compounds with a control at 37° C., 5% CO2. • At confluency, displace a group of cells within the […] measure the scrape size at each time point. • Evaluate statistical significance by Student's t test. • Observe significant differences in scrape repairin PA pre-treatment on fibroblasts.

fibroblast cells = assay: Boyden chamber chemotactic migration assay; conditions: PA treated vs controls; three independent assays
Procedure: 48-well Microchemotaxis Chamber Protocol
NOTE: The following directions assume that you are working with polycarbonate filters.
• 1. Adjust a variable-volume micropipette with a 1 mm tip so that the ejected liquid fills a bottom well. The well will hold 25 to 26 μL. A slight positive meniscus should form when the well is filled; this prevents air bubbles from being trapped when the filter is applied. • 2. Orient the bottom plate on a flat surface so that the NP trademark is at the upper left. Warm chemo-attractants or control reagents to about 37° C. and de-gas them by vortex or vacuum. Fill the bottom wells, completing the 48 wells in no more than 5 minutes, to prevent excessive evaporation. • 3. Cut 1 mm off the corner of a filter membrane and orient it with the cut corner at the upper left. Lift the filter by the ends with two forceps, hold it evenly over the filled wells, and lower it onto them, allowing the middle portion of the filter to make contact first. The filter position can be adjusted at this point if necessary, but note that too much movement will cause contamination between wells. • 4. Apply the silicone gasket with its cut corner at the upper left, then the top plate, aligning its NP trademark with the trademark on the bottom plate. […] With your free hand, apply and tighten the thumb nuts until finger tight.
• 1. […]

human fibroblast cells [2] = assay: bi-directional scratch assay (cell migration); conditions: fibroblasts pre-treated with PA 80 μM for three days; bidirectional scratch
Procedure: Fibroblasts were pre-treated with PA (80 μM) for three days before performing the scratch assay. Migration was quantified by a micrometer scale (see FIG. 3).
as §1
• Plate fibroblasts at a density 1×10^4 in 35 mm tissue culture plates and incubate for three days using novel test compounds with a control at 37° C., 5% CO2. • At confluency, displace a group of cells within the monolayer by making one streak using a sterile pipette tip. • Photograph under phase contrast microscopy sequentially at an interval of 19 hrs post scraping. • Using an ocular micrometer measure the scrape size at each time point. • Evaluate statistical significance by Student's t test. • Observe significant differences in scrape repairin PA pre-treatment on fibroblasts.

[3] = tested on: fibroblasts embedded in collagen lattice; assay: free floating collagen lattice contraction assay; conditions: PA pre-treated embedded fibroblasts; two independent experiments
Procedure: Collagen type I from bovine skin can be purchased from IBFB Pharma GmbH, Leipzig, Germany and is prepared according to the distributed protocols.
Cells are trypsinized, suspended in complete growth medium and carefully mixed in the collagen solution (collagen in 0.9×DMEM, 10% FCS, 0.2 mM NaOH, prepared at room temperature). Final cell concentrations might range from 0.8×10^4 to 3×10^5 cells/ml lattice. Final concentration of collagen might range from 0.3-0.6 mg/ml lattice.
After mixing, the solution is placed onto bacteriological Petri dishes and immediately put back into the incubator.
Half an hour after polymerization in the incubator, the lattices are carefully detached from the borders of the dishes using a pipette tip. It is important that the Free Floating Collagen Lattices “swim” freely in the medium.
Measurement of the diameter is performed at different time points depending on cell type and seeded cell number. Measurement can be done using a scale paper. From the diameter the area of the collagen lattice can be calculated and their size can be compared at different time points.
Production of collagen lattices: • Estimated time for 20 lattices=1 h conduction plus 1 h until medium addition. • Per assay, 20 empty 35 mm cell culture dishes were pre-warmed to 37° C. […]

| SMILES | cell pellet colour, % lighter relative to −control (B10F16 mouse melanocytes; Hydroquinone at 10 μM, after 96 hrs) | colour change of cell pellet (inhibition of melanin production) (B10F16 mouse melanocytes; PA 80 μM, visual observation) | cell pellet colour, % lighter relative to −control (B10F16 mouse melanocytes; compound at 80 μM, after 96 hrs) | cell pellet colour, % lighter relative to +control (B10F16 mouse melanocytes; compound at 80 μM, after 96 hrs, relative to hydroquinone 10 μM) | enhancement of migration (tissue repair) in vitro, uni-directional cell migration (human fibroblast cells [1]) | enhancement of chemotactic migration towards chemo-attractants (factor) (fibroblast cells) | improvement of tissue migration over the untreated (human fibroblast cells [2]) | improvement of collagen contraction [3] [%] |
| --- | --- | --- | --- | --- | --- | --- | --- | --- |
| Oc1ccc(O)cc1 [+C, Hydroquinone, reference compound] | 78% lighter (78% relative to −control) | – | – | – | – | – | – | – |
| NC(=O)CCc1ccc(O)cc1 [PA, 3-(4-hydroxyphenyl)propanoic acid amide] | – | distinct color change from dark to pale | 50% lighter (relative to − control) | 39% lighter (relative to +control) | more than 60% | 2.7 | about 37% | 85 |
